Test results published in PubChem BioAssay AID256 (DTP/NCI, 2004).
Several values for one entry are separate records, joined by “and”; a condition that tells them apart may be missing. Equal entries are not always repeated. Toxic doses and inconclusive results are not listed.

Tested on: CD2F1 mice, L1210 leukemia ip, survival T/C
Experiment: NCI In Vivo Anticancer Drug Screen. Data for tumor model L1210 Leukemia (intraperitoneal) in CD2F1 (CDF1) mice
Conditions: higher = longer survival
Procedure, shortened: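 Each value reflects a quotient of treated over vehicle control outcomes in mice with a transplanted tumor.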

[1] = endpoint: mean survival time, dose: 25.0 mg/kg/injection, schedule: Q04DX002 (ip), vehicle: saline
[2] = endpoint: mean survival time, dose: 50.0 mg/kg/injection, schedule: Q04DX002 (ip), vehicle: saline
[3] = endpoint: mean survival time, dose: 100.0 mg/kg/injection, schedule: Q04DX002 (ip), vehicle: saline
[4] = endpoint: mean survival time, dose: 100.0 mg/kg/injection, schedule: Q01DX009 (ip), vehicle: saline with Tween-80
[5] = endpoint: mean survival time, dose: 200.0 mg/kg/injection, schedule: Q01DX009 (ip), vehicle: saline with Tween-80
[6] = endpoint: mean survival time, dose: 100.0 mg/kg/injection, schedule: Q04DX003 (ip), vehicle: saline with Tween-80
[7] = endpoint: mean survival time, dose: 200.0 mg/kg/injection, schedule: Q04DX003 (ip), vehicle: saline with Tween-80
[8] = endpoint: mean survival time, dose: 400.0 mg/kg/injection, schedule: Q04DX003 (ip), vehicle: saline with Tween-80

CCN(CC)CC(=O)O[C@]1(CC)C(=O)OCc2c1cc1n(c2=O)Cc2cc3ccccc3nc2-1
T/C (endpoint: median survival time, dose: 1.0 mg/kg/injection, schedule: Q01DX009 (ip), vehicle: water): 124 % of control and 109 % of control
T/C (endpoint: median survival time, dose: 3.75 mg/kg/injection, schedule: Q04DX002 (ip), vehicle: water): 114 % of control and 109 % of control
T/C (endpoint: median survival time, dose: 3.75 mg/kg/injection, schedule: Q04HX004 (iv), vehicle: other): 150 % of control
T/C (endpoint: median survival time, dose: 4.0 mg/kg/injection, schedule: Q01DX009 (ip), vehicle: water): 154 % of control and 163 % of control
T/C (endpoint: median survival time, dose: 7.5 mg/kg/injection, schedule: Q04DX002 (ip), vehicle: water): 124 % of control
T/C (endpoint: median survival time, dose: 7.5 mg/kg/injection, schedule: Q04HX004 (iv), vehicle: dextrose): 183 % of control
T/C (endpoint: median survival time, dose: 7.5 mg/kg/injection, schedule: Q04HX004 (iv), vehicle: other): 175 % of control
T/C (endpoint: median survival time, dose: 8.0 mg/kg/injection, schedule: Q01DX009 (ip), vehicle: water): 113 % of control
T/C (endpoint: median survival time, dose: 15.0 mg/kg/injection, schedule: Q04DX002 (ip), vehicle: water): 157 % of control
T/C (endpoint: median survival time, dose: 15.0 mg/kg/injection, schedule: Q04HX004 (iv), vehicle: dextrose): 218 % of control
T/C (endpoint: median survival time, dose: 15.0 mg/kg/injection, schedule: Q04HX004 (iv), vehicle: other): 203 % of control
T/C (endpoint: median survival time, dose: 30.0 mg/kg/injection, schedule: Q04DX002 (ip), vehicle: water): 223 % of control and 256 % of control
T/C (endpoint: median survival time, dose: 30.0 mg/kg/injection, schedule: Q04HX004 (iv), vehicle: dextrose): 204 % of control
T/C (endpoint: median survival time, dose: 30.0 mg/kg/injection, schedule: Q04HX004 (iv), vehicle: other): 268 % of control

C[n+]1ccc(Cc2ccccc2)cc1
T/C (endpoint: mean survival time, dose: 12.5 mg/kg/injection, schedule: Q04DX002 (ip), vehicle: saline): 104 % of control
T/C [1]: 96 % of control
T/C [2]: 102 % of control

NCC1=NCCN1
T/C [3]: 124 % of control
T/C (endpoint: mean survival time, dose: 200.0 mg/kg/injection, schedule: Q04DX002 (ip), vehicle: saline): 95 % of control
T/C (endpoint: mean survival time, dose: 400.0 mg/kg/injection, schedule: Q04DX002 (ip), vehicle: saline): 102 % of control

CNC(=O)OCc1c(COC(=O)NC)c(C)n(-c2ccccc2)c1C
T/C (endpoint: mean survival time, dose: 6.25 mg/kg/injection, schedule: Q01DX009 (ip), vehicle: Klucel (hydroxypropylcellulose) (HPC)): 109 % of control
T/C (endpoint: mean survival time, dose: 12.5 mg/kg/injection, schedule: Q01DX009 (ip), vehicle: Klucel (hydroxypropylcellulose) (HPC)): 106 % of control
T/C (endpoint: mean survival time, dose: 25.0 mg/kg/injection, schedule: Q01DX009 (ip), vehicle: Klucel (hydroxypropylcellulose) (HPC)): 104 % of control

COc1ccc2c(Cc3ccc(O)cc3)cncc2c1O
T/C (endpoint: mean survival time, dose: 75.0 mg/kg/injection, schedule: Q01DX001 (ip), vehicle: saline): 100 % of control
T/C (endpoint: mean survival time, dose: 150.0 mg/kg/injection, schedule: Q01DX001 (ip), vehicle: saline): 106 % of control
T/C (endpoint: mean survival time, dose: 300.0 mg/kg/injection, schedule: Q01DX001 (ip), vehicle: saline): 98 % of control

OCNC(=S)c1c(Cl)cccc1Cl
T/C [4]: 98 % of control
T/C [5]: 102 % of control

c1ccc(-c2nc3ccc4ccccc4c3nc2-c2ccccc2)cc1
T/C [4]: 94 % of control
T/C [6]: 98 % of control
T/C [5]: 96 % of control
T/C [7]: 92 % of control
T/C (endpoint: mean survival time, dose: 400.0 mg/kg/injection, schedule: Q01DX009 (ip), vehicle: saline with Tween-80): 96 % of control
T/C [8]: 92 % of control

O=C1C(Cl)(Cl)C(=O)C(Cl)(Cl)C(=O)C1(Cl)Cl
T/C (endpoint: mean survival time, dose: 25.0 mg/kg/injection, schedule: Q04DX002 (ip), vehicle: saline with Tween-80): 97 % of control
T/C (endpoint: mean survival time, dose: 50.0 mg/kg/injection, schedule: Q04DX002 (ip), vehicle: saline with Tween-80): 94 % of control

COc1ccc(-c2cc(C(=O)O)c3ccc(C)cc3n2)cc1
T/C [6]: 102 % of control
T/C [7]: 101 % of control
T/C [8]: 101 % of control

Oc1ccccc1C=NC1CCCCC1N=Cc1ccccc1O.[Cu] (configuration not stated)
T/C (endpoint: mean survival time, dose: 100.0 mg/kg/injection, schedule: Q04DX002 (ip), vehicle: saline with Tween-80): 88 % of control
T/C (endpoint: mean survival time, dose: 200.0 mg/kg/injection, schedule: Q04DX002 (ip), vehicle: saline with Tween-80): 88 % of control
T/C (endpoint: mean survival time, dose: 400.0 mg/kg/injection, schedule: Q04DX002 (ip), vehicle: saline with Tween-80): 91 % of control

Cc1cc(Cc2ccccc2)c(O)c(Cc2ccccc2)c1
T/C (endpoint: mean survival time, dose: 100.0 mg/kg/injection, schedule: Q04DX003 (ip), vehicle: other): 96 % of control
T/C (endpoint: mean survival time, dose: 200.0 mg/kg/injection, schedule: Q04DX003 (ip), vehicle: other): 102 % of control
T/C (endpoint: mean survival time, dose: 400.0 mg/kg/injection, schedule: Q04DX003 (ip), vehicle: other): 94 % of control

Cc1ccc(NC(=O)Nc2cccc(-n3cnc4c(=O)[nH]c(N)nc43)c2)cc1S(=O)(=O)F
T/C (endpoint: mean survival time, dose: 100.0 mg/kg/injection, schedule: Q01DX001 (ip), vehicle: saline with Tween-80): 86 % of control
T/C (endpoint: mean survival time, dose: 200.0 mg/kg/injection, schedule: Q01DX001 (ip), vehicle: saline with Tween-80): 88 % of control
T/C (endpoint: mean survival time, dose: 400.0 mg/kg/injection, schedule: Q01DX001 (ip), vehicle: saline with Tween-80): 89 % of control

COc1ccccc1NC(=O)NC1C(OC(C)=O)OC(COC(C)=O)C(OC(C)=O)C1OC(C)=O (configuration not stated)
T/C (endpoint: mean survival time, dose: 12.5 mg/kg/injection, schedule: Q01DX009 (ip), vehicle: other): 93 % of control
T/C (endpoint: mean survival time, dose: 25.0 mg/kg/injection, schedule: Q01DX009 (ip), vehicle: other): 94 % of control
T/C (endpoint: mean survival time, dose: 50.0 mg/kg/injection, schedule: Q01DX009 (ip), vehicle: other): 98 % of control
T/C (endpoint: mean survival time, dose: 100.0 mg/kg/injection, schedule: Q01DX009 (ip), vehicle: other): 94 % of control
T/C (endpoint: mean survival time, dose: 200.0 mg/kg/injection, schedule: Q01DX009 (ip), vehicle: other): 93 % of control

c1ccc(CCNCc2ccccn2)nc1
T/C [1]: 96 % of control
T/C [2]: 101 % of control
T/C (endpoint: mean survival time, dose: 100.0 mg/kg/injection, schedule: Q01DX001 (ip), vehicle: saline): 94 % of control
T/C [3]: 96 % of control
